# Reference: publication PMC8563958 (Cell Research, 2021)
# Read-outs that look alike come from different tables or passages of the source.
# Key:
# MC4R H158A = target: T1, MC4R H158A (Homo sapiens, UniProt P32245, H158A); assay type: cell-based
# T1 construct: expressed in transfected cells; host or cells: HEK293 (transient, vector pcDps)
# wild-type MC4R (WT) = target: T2, wild-type MC4R (WT) (Homo sapiens, UniProt P32245); assay type: cell-based; conditions: set as 100 %, 1 µM ligand, HEK293, 40 min 37 °C, 1 mM IBMX, 4-8 experiments in triplicates
# T2 construct: expressed in transfected cells; host or cells: HEK293 (transient, vector pcDps)
# [1] = ref not given, cited from earlier work
# Excerpt: In contrast to other M ...
# [2] = target: MC4R D122S, N-terminally HA-tagged (human) (UniProt P32245)
# MC4R L133 to methionine = conditions: cited from earlier work
# MC1R = conditions: cited from earlier work
# MC5R = MC5R with V126; cited from earlier work
# MC4R [3] = conditions: cited from earlier work
# Excerpt: (Fig. 1a). The binding mode of SHU9119 is generally like that of NDP-α-MSH. […] W6^3 is also clamped by H264^6.54 (TM6) and S188^EL2, and R5^2 connects TM3−TM4 and EL2 through hydrogen bonds with S188^EL2 and I185^4.61 (Fig. 2i; Supplementary information, Fig. S11 and Table S4).
# MC4R [4] = tested on: MC4R; parameters: method as in earlier work; conditions: ref 4 (AgRP); ref not given for MSH; cited from earlier work
# [5] = target: wild-type MC4R, N-terminally HA-tagged (signalling construct) (human) (UniProt P32245)
compound,measurement,setting,value
CC(=O)N[C@@H](CCCNC(=N)N)C(=O)N[C@H]1CSSC[C@@H](C(N)=O)NC(=O)[C@H](Cc2c[nH]c3ccccc23)NC(=O)[C@H](CCCNC(=N)N)NC(=O)[C@@H](Cc2ccccc2)NC(=O)[C@H](Cc2c[nH]cn2)NC(=O)[C@@H](C)NC1=O [setmelanotide],maximum Gq/11 signaling,MC4R H158A,50%
same,Emax cAMP,wild-type MC4R (WT),100 % of WT
same,Gs signaling-related adverse effects,[1]; in contrast to other MC4R agonists,"does not cause common Gs signaling-related adverse effects, such as tachycardia or hypertension"
same,adverse effects,"[1]; rare, moderate",skin hyperpigmentation
NDP-α-MSH (peptide),"EC50 of cAMP accumulation (Gs signaling), transfected HEK293 cells",[2],9 nM
SHU9119,mode of action at L133M mutant,MC4R L133 to methionine,reverses SHU9119 to an agonist
same,mode of action at MC1R,"MC1R; MC1R with M128, 37 (ref 36)",partial agonist
same,mode of action in MC1R–Gs complex,MC1R; cryo-EM structure of active MC1R–Gs complex,acting as an agonist
same,mode of action at MC5R,MC5R,partial agonist
same,mode of action at MC4R,MC4R [3]; antagonism,antagonizes the MC4R
"agouti-related peptide (SSRRCVRLHESCLGQQVPCCDPCATCYCRFFNAFCYCRKLGTAMNPCSRT; UniProt O00253 83-132, looked up) [AgRP]",effect on appetite,MC4R [4],orexigenic effects
same,mode of action at MC4R,MC4R [3]; reducing high levels of basal signaling activity,inverse agonist
melanotan II,mode of action at MC4R,MC4R [3],agonizes MC4R
same,mode of action at MC4R,MC4R [3]; listed as melatonan II,agonistic effects
setmelanotide (peptide),"potency (EC50) of cAMP accumulation, transfected HEK293 cells",[5],1.2 nM
β-MSH,effect on appetite,MC4R [4],appetite-reducing effects
